Reference: BindingDB's records for doi:10.1021/jm00037a006 (Abbott Laboratories, 1994)
Square brackets hold non-standard residues; d marks the D form. Peptide text beside a SMILES is read from it. * marks the point of attachment. Acryloyl(3-(3-pyridyl),E) = O=C(/C=C/c1cccnc1)*; NMeF = CN[C@@H](Cc1ccccc1)C(=O)O; NMeD = CN[C@@H](CC(=O)O)C(=O)O; Boc = CC(C)(C)OC(=O)*

Biological target: Gastrin/cholecystokinin type B receptor (Cavia porcellus)
Assay: In vitro binding for half maximal inhibition of [125I]- cholecystokinin type B receptor in guinea pig cortex

SMILES: CN(C(=O)[C@H](CCCCNC(=O)/C=C/c1cccnc1)NC(=O)[C@H](Cc1c[nH]c2ccccc12)NC(=O)OC(C)(C)C)[C@@H](CC(=O)O)C(=O)N(C)[C@@H](Cc1ccccc1)C(N)=O [(S)-3-{[(S)-2-[2-tert-Butoxycarbonylamino-3-(1H-indol-3-yl)-propionylamino]-6-((E)-3-pyridin-3-yl-acryloylamino)-hexanoyl]-methyl-amino}-N-((S)-1-carbamoyl-2-phenyl-ethyl)-N-methyl-succinamic acid] (Boc-WK(Acryloyl(3-(3-pyridyl),E))[NMeD][NMeF]-NH2)
- IC50: 22.7 µM
